In ChEMBL document CHEMBL3046947, “Synthesis and antimicrobial activity studies of some novel substituted phenylhydrazono-1H-tetrazol-5-yl-acetonitriles” (2010):
Calls of active or inactive are those of the source. No cut-off for these calls is given here.

How the values were obtained:
Pseudomonas aeruginosa [1] = assay: Antibacterial activity against Pseudomonas aeruginosa […] at 10 units/disk after 24 hr by agar well diffusion method; assay type: functional, organism-based
Escherichia coli [2] = assay: Antibacterial activity against Escherichia coli ATCC 35218 at 10 units/disk after 24 hr by agar well diffusion method; assay type: functional
Bacillus cereus [3] = assay: Antibacterial activity against Bacillus cereus RSKK 863 at 10 units/disk after 24 hr by agar well diffusion method; assay type: functional, organism-based
Escherichia coli [4] = assay: Antibacterial activity against Escherichia coli ATCC 35218 at 1 mg/ml after 24 hr by agar well diffusion method; assay type: functional; settings: for zone of inhibition at 1000 µg/mL: ATCC 35218, 24 h, read-out: IZ
Bacillus cereus [5] = assay: Antibacterial activity against Bacillus cereus RSKK 863 at 1 mg/ml after 24 hr by agar well diffusion method; assay type: functional; settings: for zone of inhibition at 1000 µg/mL: RSKK 863, 24 h, read-out: IZ
Pseudomonas aeruginosa [6] = assay: Antibacterial activity against Pseudomonas aeruginosa […] at 1 mg/ml after 24 hr by agar well diffusion method; assay type: functional; settings: for zone of inhibition at 1000 µg/mL: read-out: IZ
Staphylococcus aureus = assay: Antibacterial activity against Staphylococcus aureus TP32 clinical isolate at 1 mg/ml after 24 hr by agar well diffusion method; assay type: functional; settings: for zone of inhibition at 1000 µg/mL: TP32, 24 h, read-out: IZ
Pseudomonas aeruginosa [7] = assay: Antibacterial activity against Pseudomonas aeruginosa […] at 30 ug/disk after 24 hr by agar well diffusion method; assay type: functional
Escherichia coli [8] = assay: Antibacterial activity against Escherichia coli ATCC 35218 at 30 ug/disk after 24 hr by agar well diffusion method; assay type: functional, organism-based
Bacillus cereus [9] = assay: Antibacterial activity against Bacillus cereus RSKK 863 at 30 ug/disk after 24 hr by agar well diffusion method; assay type: functional; settings: for zone of inhibition at 30 µg/disc: RSKK 863, 24 h, read-out: IZ
Pseudomonas aeruginosa [10] = assay: Antibacterial activity against Pseudomonas aeruginosa […] at 15 ug/disk after 24 hr by agar well diffusion method; assay type: functional, organism-based
Escherichia coli [11] = assay: Antibacterial activity against Escherichia coli ATCC 35218 at 15 ug/disk after 24 hr by agar well diffusion method; assay type: functional; settings: ATCC 35218, 24 h, read-out: IZ
Bacillus cereus [12] = assay: Antibacterial activity against Bacillus cereus RSKK 863 at 15 ug/disk after 24 hr by agar well diffusion method; assay type: functional; settings: RSKK 863, 24 h, read-out: IZ
Pseudomonas aeruginosa [13] = assay: Antibacterial activity against Pseudomonas aeruginosa […] at 10 ug/disk after 24 hr by agar well diffusion method; assay type: functional, organism-based
Escherichia coli [14] = assay: Antibacterial activity against Escherichia coli ATCC 35218 at 10 ug/disk after 24 hr by agar well diffusion method; assay type: functional; settings: ATCC 35218, 24 h, read-out: IZ
Bacillus cereus [15] = assay: Antibacterial activity against Bacillus cereus RSKK 863 at 10 ug/disk after 24 hr by agar well diffusion method; assay type: functional; settings: RSKK 863, 24 h, read-out: IZ

Structure (SMILES)	zone of inhibition at 1000 µg/mL (Escherichia coli [4]) [mm]	zone of inhibition at 1000 µg/mL (Bacillus cereus [5]) [mm]	zone of inhibition at 1000 µg/mL (Pseudomonas aeruginosa [6]) [mm]	zone of inhibition at 1000 µg/mL (Staphylococcus aureus) [mm]	also measured
CC1(C)S[C@@H]2[C@H](NC(=O)Cc3ccccc3)C(=O)N2[C@H]1C(=O)O [PENICILLIN G]					inhibition zone (IZ) (Pseudomonas aeruginosa [1]): inactive; inhibition zone (IZ) (Escherichia coli [2]): 17 mm; inhibition zone (IZ) (Bacillus cereus [3]): inactive
Cc1ccc(N/N=C(\C#N)c2nnn[nH]2)cc1	10	20	8	8	
N#C/C(=N\Nc1ccc([N+](=O)[O-])cc1)c1nnn[nH]1	10	11	5	3	
N#C/C(=N\Nc1ccc(I)cc1)c1nnn[nH]1	7	10	9	8	
N#C/C(=N\Nc1ccc(Br)cc1)c1nnn[nH]1	14	20	8	6	
Cc1ccccc1N/N=C(\C#N)c1nnn[nH]1	10	20	5	4	
CN[C@H](CC(C)C)C(=O)N[C@H]1C(=O)N[C@@H](CC(N)=O)C(=O)N[C@H]2C(=O)N[C@H]3C(=O)N[C@H](C(=O)N[C@H](C(=O)O)c4cc(O)cc(O)c4-c4cc3ccc4O)[C@H](O)c3ccc(c(Cl)c3)Oc3cc2cc(c3O[C@@H]2O[C@H](CO)[C@@H](O)[C@H](O)[C@H]2O[C@H]2C[C@](C)(N)[C@H](O)[C@H](C)O2)Oc2ccc(cc2Cl)[C@H]1O [VANCOMYCIN]					inhibition zone (IZ) (Pseudomonas aeruginosa [7]): inactive; inhibition zone (IZ) (Escherichia coli [8]): inactive; zone of inhibition at 30 µg/disc (Bacillus cereus [9]): 17 mm
N#C/C(=N\Nc1ccccc1[N+](=O)[O-])c1nnn[nH]1	7	10	4	4	
OC(Cn1cncn1)(Cn1cncn1)c1ccc(F)cc1F					inhibition zone (IZ) (Pseudomonas aeruginosa [7]): inactive; inhibition zone (IZ) (Escherichia coli [8]): inactive; inhibition zone (IZ) (Bacillus cereus [9]): inactive
N#C/C(=N\Nc1ccccc1)c1nnn[nH]1	7	15	9	8	
N#C/C(=N\Nc1ccccc1F)c1nnn[nH]1	14	19	4	5	
N#C/C(=N\Nc1ccccc1I)c1nnn[nH]1	7	17	5	3	
CC[C@H]1OC(=O)[C@H](C)[C@@H](O[C@H]2C[C@@](C)(OC)[C@@H](O)[C@H](C)O2)[C@H](C)[C@@H](O[C@@H]2O[C@H](C)C[C@H](N(C)C)[C@H]2O)[C@](C)(O)C[C@@H](C)C(=O)[C@H](C)[C@@H](O)[C@]1(C)O [ERYTHROMYCIN]					inhibition zone (IZ) (Pseudomonas aeruginosa [10]): inactive; zone of inhibition at 15 µg/disc (Escherichia coli [11]): 11 mm; zone of inhibition at 15 µg/disc (Bacillus cereus [12]): 19 mm
N#C/C(=N\Nc1ccccc1Br)c1nnn[nH]1	7	12	3		inhibition zone (IZ) (Staphylococcus aureus): inactive
COc1ccc(N/N=C(\C#N)c2nnn[nH]2)cc1	10	7			inhibition zone (IZ) (Pseudomonas aeruginosa [6]): inactive; inhibition zone (IZ) (Staphylococcus aureus): inactive
CC1(C)S[C@@H]2[C@H](NC(=O)[C@H](N)c3ccccc3)C(=O)N2[C@H]1C(=O)O [AMPICILLIN]					inhibition zone (IZ) (Pseudomonas aeruginosa [13]): inactive; zone of inhibition at 10 µg/disc (Escherichia coli [14]): 9 mm; zone of inhibition at 10 µg/disc (Bacillus cereus [15]): 20 mm
N#C/C(=N\Nc1ccc(F)cc1)c1nnn[nH]1	11	19	8	10	
N#C/C(=N\Nc1ccccc1Cl)c1nnn[nH]1		5	10	7	inhibition zone (IZ) (Escherichia coli [4]): inactive
N#C/C(=N\Nc1ccc(Cl)cc1)c1nnn[nH]1	10	21	8	6	
COc1ccccc1N/N=C(\C#N)c1nnn[nH]1					inhibition zone (IZ) (Escherichia coli [4]): inactive; inhibition zone (IZ) (Bacillus cereus [5]): inactive; inhibition zone (IZ) (Pseudomonas aeruginosa [6]): inactive; inhibition zone (IZ) (Staphylococcus aureus): inactive
CN(C)[C@@H]1C(O)=C(C(N)=O)C(=O)[C@@]2(O)C(O)=C3C(=O)c4c(O)cccc4[C@@](C)(O)[C@H]3C[C@@H]12 [TETRACYCLINE]					zone of inhibition at 30 µg/disc (Pseudomonas aeruginosa [7]; read-out: IZ): 16 mm; inhibition zone (IZ) (Escherichia coli [8]): inactive; zone of inhibition at 30 µg/disc (Bacillus cereus [9]): 17 mm
